Source: patent publication US4529733A, “Antihypertensive 3-furoyl-1,4-dihydropyridines” (Merrell Dow Pharmaceuticals Inc., priority 1983, dated 1985)

Tests used:
[1] = target: T1, K^+ -depolarized taenia preparations from the guinea pig caecum (Cavia porcellus, UniProt O35505); experiment: Calcium antagonism in K+-depolarized taenia preparations (displacement of Ca++ concentration-response curves); type: cell-based; settings: for Kb: calculated, against Ca++, read-out: pA2 (converted)
T1 construct: taenia preparations from the guinea pig caecum; from tissue; host or cells: guinea pig caecum, taenia (smooth muscle)
Source text: Pharmacol., 38, 234 (1982). […] Pharmacol., 318, 234 (1982)].

[2] = tested on: K^+ -depolarized taenia preparations from guinea pig caecum; experiment: Inhibition of 45Ca++ uptake in K+-depolarized taenia preparations; type: cell-based; settings: 0.1 and 1 μM; 20 minutes incubation
Description: In this procedure, strips of taenia are incubated in Ca^++ -free buffer (composition, mM: NaCl, 97; KCl, 40; glucose, 5.5, HEPES buffer, 10; pH 7.0) at 35° C. and gassed with oxygen. The preparations thus prepared are then incubated with the test compound for 20 minutes after which ^45 Ca^++ /Ca^++ is added (1 mM for 10 minutes). Extracellular Ca^++ is displaced with lanthanum (50 mM) at 0°-4° C.

pithed rats = experiment: Anti-hypertensive activity in pithed rats (blood pressure elevated by angiotensin II infusion); type: in vivo, rat; settings: for bradycardia / diastolic blood pressure, elevated by an infusion of angiotensin II: i.v., result in words
[3] = tested on: pentobarbitone-anesthetized rats; experiment: Anti-hypertensive effect in pentobarbitone-anesthetized rats; type: in vivo, rat; settings: for Change in diastolic blood pressure / Change in heart rate: pentobarbitone-anesthetized rats
Description: In this test, rats, anesthetized with a 45 to 60 mg/kg dose (i.p.) of sodium pentabarbitone, receive the test compound by injection by means of an indwelling cannula in the femoral vein. Diastolic blood pressure is measured by an indwelling catheter in the femoral artery. Heart rate is also measured.

[4] = tested on: conscious spontaneously hypertensive rats (stroke prone strain); experiment: Anti-hypertensive effect in conscious spontaneously hypertensive rats (stroke prone strain); type: in vivo, rat
Description: In this test, the test compound is injected in an indwelling cannula in the femoral vein and blood pressure is measured by an indwelling catheter in the femoral artery. Heart rate is also measured.

T1 sequence (O35505 whole entry): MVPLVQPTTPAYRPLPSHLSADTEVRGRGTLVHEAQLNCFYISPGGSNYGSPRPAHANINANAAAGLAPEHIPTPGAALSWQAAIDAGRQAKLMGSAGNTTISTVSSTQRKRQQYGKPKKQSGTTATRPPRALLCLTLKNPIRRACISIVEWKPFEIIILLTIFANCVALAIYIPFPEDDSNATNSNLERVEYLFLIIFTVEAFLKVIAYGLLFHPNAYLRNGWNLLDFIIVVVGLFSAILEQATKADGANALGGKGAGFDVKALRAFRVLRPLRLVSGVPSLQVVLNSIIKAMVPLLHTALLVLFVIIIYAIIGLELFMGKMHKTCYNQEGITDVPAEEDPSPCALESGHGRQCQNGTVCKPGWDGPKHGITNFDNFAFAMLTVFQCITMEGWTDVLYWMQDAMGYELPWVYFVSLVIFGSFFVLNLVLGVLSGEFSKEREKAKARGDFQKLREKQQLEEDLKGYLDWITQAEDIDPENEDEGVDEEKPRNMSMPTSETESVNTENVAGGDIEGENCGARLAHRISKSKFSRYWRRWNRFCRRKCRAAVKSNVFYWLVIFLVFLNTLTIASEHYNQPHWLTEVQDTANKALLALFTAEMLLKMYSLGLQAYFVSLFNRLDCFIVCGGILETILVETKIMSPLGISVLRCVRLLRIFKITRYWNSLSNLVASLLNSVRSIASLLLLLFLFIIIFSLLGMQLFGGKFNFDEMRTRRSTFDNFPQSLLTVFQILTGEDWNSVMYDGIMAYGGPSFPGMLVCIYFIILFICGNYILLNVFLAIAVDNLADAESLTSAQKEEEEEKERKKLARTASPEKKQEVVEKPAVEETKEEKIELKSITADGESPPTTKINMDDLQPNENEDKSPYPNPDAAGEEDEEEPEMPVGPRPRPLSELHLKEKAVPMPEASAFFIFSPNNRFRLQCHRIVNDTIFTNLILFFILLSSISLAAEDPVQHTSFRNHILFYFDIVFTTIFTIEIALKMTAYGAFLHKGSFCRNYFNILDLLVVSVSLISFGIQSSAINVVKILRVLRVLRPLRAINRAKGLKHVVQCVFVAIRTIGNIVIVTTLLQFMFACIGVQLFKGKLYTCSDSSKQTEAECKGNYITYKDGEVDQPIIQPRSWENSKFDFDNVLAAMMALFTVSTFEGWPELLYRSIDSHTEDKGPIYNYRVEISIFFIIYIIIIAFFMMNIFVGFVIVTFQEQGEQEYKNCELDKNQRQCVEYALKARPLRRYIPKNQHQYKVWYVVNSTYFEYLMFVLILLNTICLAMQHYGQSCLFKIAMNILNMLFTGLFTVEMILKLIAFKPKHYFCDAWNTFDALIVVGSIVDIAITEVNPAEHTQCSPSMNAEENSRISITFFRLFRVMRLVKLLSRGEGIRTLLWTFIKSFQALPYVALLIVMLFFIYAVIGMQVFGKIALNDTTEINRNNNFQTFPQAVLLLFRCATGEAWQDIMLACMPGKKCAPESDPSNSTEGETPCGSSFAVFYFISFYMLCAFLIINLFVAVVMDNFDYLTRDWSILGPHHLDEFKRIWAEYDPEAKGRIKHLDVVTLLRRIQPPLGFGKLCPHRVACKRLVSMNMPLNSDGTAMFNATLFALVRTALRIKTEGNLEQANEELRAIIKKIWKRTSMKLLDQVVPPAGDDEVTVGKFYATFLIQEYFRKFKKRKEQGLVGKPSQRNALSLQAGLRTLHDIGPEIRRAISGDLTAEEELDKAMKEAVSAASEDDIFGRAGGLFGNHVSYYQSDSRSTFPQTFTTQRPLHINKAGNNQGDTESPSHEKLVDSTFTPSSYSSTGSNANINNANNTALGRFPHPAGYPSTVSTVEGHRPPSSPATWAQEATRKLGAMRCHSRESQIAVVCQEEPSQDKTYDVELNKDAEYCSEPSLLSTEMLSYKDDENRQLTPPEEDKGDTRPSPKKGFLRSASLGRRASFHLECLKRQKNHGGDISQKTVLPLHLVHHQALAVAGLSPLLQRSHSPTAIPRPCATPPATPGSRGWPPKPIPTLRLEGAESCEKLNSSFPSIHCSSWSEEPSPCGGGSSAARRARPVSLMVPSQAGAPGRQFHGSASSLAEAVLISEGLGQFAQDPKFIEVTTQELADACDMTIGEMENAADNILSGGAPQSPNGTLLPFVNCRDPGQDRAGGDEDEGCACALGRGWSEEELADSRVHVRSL

COC(=O)C1=C(C)NC(C)=C(C(=O)c2ccco2)C1c1ccccc1[N+](=O)[O-] (stereo not drawn) [Compound A, 3-(2-furoyl)-5-methoxycarbonyl-2,6-dimethyl-4-(2-nitrophenyl)-1,4-dihydropyridine]
displacement of concentration-response curves to Ca++ [1]: caused a concentration-dependent displacement to the right
Kb [1]: 1.78 nM
uptake of 45Ca++ into the tissue [2]: reduced uptake
Change in diastolic blood pressure (pithed rats; 3 nmol/kg i.v.): 82.2 ± 5.3 % control
Change in heart rate (pithed rats; 3 nmol/kg i.v.): 98.1 ± 0.9 % control
Change in diastolic blood pressure (pithed rats; 10 nmol/kg i.v.): 72.3 ± 4.9 % control
Change in heart rate (pithed rats; 10 nmol/kg i.v.): 93.7 ± 1.7 % control
Change in diastolic blood pressure (pithed rats; 30 nmol/kg i.v.): 62.4 ± 3.5 % control
Change in heart rate (pithed rats; 30 nmol/kg i.v.): 90.9 ± 2.5 % control
Change in diastolic blood pressure (pithed rats; 100 nmol/kg i.v.): 52.0 ± 3.8 % control
Change in heart rate (pithed rats; 100 nmol/kg i.v.): 81.1 ± 3.3 % control
Change in diastolic blood pressure (pithed rats; 300 nmol/kg i.v.): 45.0 ± 1.6 % control
Change in heart rate (pithed rats; 300 nmol/kg i.v.): 74.2 ± 3.4 % control
Change in diastolic blood pressure (pithed rats; 1000 nmol/kg i.v.): 36.4 ± 1.8 % control
Change in heart rate (pithed rats; 1000 nmol/kg i.v.): 67.9 ± 3.4 % control
Change in diastolic blood pressure (pithed rats; 3000 nmol/kg i.v.): 32.9 ± 1.8 % control
Change in heart rate (pithed rats; 3000 nmol/kg i.v.): 64.3 ± 3.4 % control
bradycardia (pithed rats): dose-dependent bradycardia
diastolic blood pressure, elevated by an infusion of angiotensin II (pithed rats): significantly reduced
blood pressure in anesthetized rats ([3]; anesthetized rats, i.v., result in words): reduced blood pressure in anesthetized rats in a dose-dependent manner
Change in diastolic blood pressure ([3]; 10 nmol/kg i.v.): 86.0 ± 3.3 % control
Change in heart rate ([3]; 10 nmol/kg i.v.): 103.5 ± 0.9 % control
Change in diastolic blood pressure ([3]; 30 nmol/kg i.v.): 80.2 ± 3.2 % control
Change in heart rate ([3]; 30 nmol/kg i.v.): 106.2 ± 2.0 % control
Change in diastolic blood pressure ([3]; 100 nmol/kg i.v.): 55.0 ± 2.8 % control
Change in heart rate ([3]; 100 nmol/kg i.v.): 107.1 ± 3.6 % control
Change in diastolic blood pressure ([3]; 300 nmol/kg i.v.): 54.6 ± 1.9 % control
Change in heart rate ([3]; 300 nmol/kg i.v.): 106.7 ± 3.1 % control
Change in diastolic blood pressure ([3]; 1000 nmol/kg i.v.): 46.7 ± 1.6 % control
Change in heart rate ([3]; 1000 nmol/kg i.v.): 104.0 ± 1.8 % control
Change in diastolic blood pressure ([3]; 3000 nmol/kg i.v.): 46.6 ± 1.6 % control
Change in heart rate ([3]; 3000 nmol/kg i.v.): 102.2 ± 2.2 % control
Change in diastolic blood pressure ([3]; 10000 nmol/kg i.v.): 32.4 ± 2.0 % control
Change in heart rate ([3]; 10000 nmol/kg i.v.): 99.9 ± 3.4 % control
Fall in mean blood pressure ([4]; 100 nmol/kg i.v.): 4.5 ± 1.5 mm Hg
Increase in heart rate ([4]; 100 nmol/kg i.v.): 20.0 ± 3.2 beats/min
Fall in mean blood pressure ([4]; 300 nmol/kg i.v.): 20.5 ± 1.5 mm Hg
Increase in heart rate ([4]; 300 nmol/kg i.v.): 70.0 ± 4.2 beats/min
Fall in mean blood pressure ([4]; 1000 nmol/kg i.v.): 42.5 ± 1.8 mm Hg
Increase in heart rate ([4]; 1000 nmol/kg i.v.): 118.0 ± 16.3 beats/min
Fall in mean blood pressure ([4]; 3000 nmol/kg i.v.): 56.6 ± 1.4 mm Hg
Increase in heart rate ([4]; 3000 nmol/kg i.v.): 136.3 ± 11.1 beats/min
blood pressure ([4]; i.v., result in words): significantly reduced blood pressure in a dose-dependent manner
reflex tachycardia ([4]; i.v., result in words): produced reflex tachycardia

CCOC(=O)C1=C(C)NC(C)=C(C(=O)c2ccco2)C1c1ccccc1[N+](=O)[O-] (stereo not drawn) [Compound B, 3-(2-furoyl)-5-ethoxycarbonyl-2,6-dimethyl-4-(2-nitrophenyl)-1,4-dihydropyridine]
displacement of concentration-response curves to Ca++ [1]: caused a concentration-dependent displacement to the right
Kb [1]: 4.57 nM
Change in diastolic blood pressure (pithed rats; 10 nmol/kg i.v.): 80.6 ± 2.8 % control
Change in heart rate (pithed rats; 10 nmol/kg i.v.): 94.1 ± 0.5 % control
Change in diastolic blood pressure (pithed rats; 30 nmol/kg i.v.): 67.9 ± 3.0 % control
Change in heart rate (pithed rats; 30 nmol/kg i.v.): 90.4 ± 1.3 % control
Change in diastolic blood pressure (pithed rats; 100 nmol/kg i.v.): 47.7 ± 2.4 % control
Change in heart rate (pithed rats; 100 nmol/kg i.v.): 85.7 ± 1.5 % control
Change in diastolic blood pressure (pithed rats; 300 nmol/kg i.v.): 45.6 ± 3.9 % control
Change in heart rate (pithed rats; 300 nmol/kg i.v.): 84.1 ± 3.4 % control
Change in diastolic blood pressure (pithed rats; 1000 nmol/kg i.v.): 39.1 ± 2.1 % control
Change in heart rate (pithed rats; 1000 nmol/kg i.v.): 76.6 ± 3.4 % control
Change in diastolic blood pressure (pithed rats; 3000 nmol/kg i.v.): 37.1 ± 0.8 % control
Change in heart rate (pithed rats; 3000 nmol/kg i.v.): 72.2 ± 3.4 % control
bradycardia (pithed rats): dose-dependent bradycardia
diastolic blood pressure, elevated by an infusion of angiotensin II (pithed rats): significantly reduced
